These results are taken from patent publication US11208412B2 (DAEGU-GYEONGBUK MEDICAL INNOVATION FOUNDATION, priority 2017, dated 2021).

Holding throughout (assay): Kinase selectivity, DiscoverX scanMAX Kinase assay panel (% control)
Holding throughout (format): binding

Assay [1] deals with T1, kinases of the scanMAX Kinase assay panel (Homo sapiens, UniProt O43353).
T1 construct: purchased DiscoverX Co. (contract measurement) scanMAX Kinase assay panel
The settings on record: kinase RIPK2; 1 uM in DMSO. The procedure, abridged:
(§1)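 Percent of control computed as (compound − positive control)/(negative control − positive control) × 100, DMSO defining 100% and positive control 0%. Each panel kinase exposed to 1 uM compound; values under 35% taken to mean the compound acts on that kinase.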

In assay [2] the target is T2, kinases of the scanMAX Kinase assay panel (Homo sapiens, UniProt P10721, V559D).
T2 construct: purchased DiscoverX Co. (contract measurement) scanMAX Kinase assay panel
Conditions: KIT(V559D); 1 uM. The procedure, abridged:
as §1

The target of assay [3] is T3, kinases of the scanMAX Kinase assay panel (Homo sapiens, UniProt P36888).
T3 construct: purchased DiscoverX Co. (contract measurement) scanMAX Kinase assay panel
T3 sequence (P36888 27-993): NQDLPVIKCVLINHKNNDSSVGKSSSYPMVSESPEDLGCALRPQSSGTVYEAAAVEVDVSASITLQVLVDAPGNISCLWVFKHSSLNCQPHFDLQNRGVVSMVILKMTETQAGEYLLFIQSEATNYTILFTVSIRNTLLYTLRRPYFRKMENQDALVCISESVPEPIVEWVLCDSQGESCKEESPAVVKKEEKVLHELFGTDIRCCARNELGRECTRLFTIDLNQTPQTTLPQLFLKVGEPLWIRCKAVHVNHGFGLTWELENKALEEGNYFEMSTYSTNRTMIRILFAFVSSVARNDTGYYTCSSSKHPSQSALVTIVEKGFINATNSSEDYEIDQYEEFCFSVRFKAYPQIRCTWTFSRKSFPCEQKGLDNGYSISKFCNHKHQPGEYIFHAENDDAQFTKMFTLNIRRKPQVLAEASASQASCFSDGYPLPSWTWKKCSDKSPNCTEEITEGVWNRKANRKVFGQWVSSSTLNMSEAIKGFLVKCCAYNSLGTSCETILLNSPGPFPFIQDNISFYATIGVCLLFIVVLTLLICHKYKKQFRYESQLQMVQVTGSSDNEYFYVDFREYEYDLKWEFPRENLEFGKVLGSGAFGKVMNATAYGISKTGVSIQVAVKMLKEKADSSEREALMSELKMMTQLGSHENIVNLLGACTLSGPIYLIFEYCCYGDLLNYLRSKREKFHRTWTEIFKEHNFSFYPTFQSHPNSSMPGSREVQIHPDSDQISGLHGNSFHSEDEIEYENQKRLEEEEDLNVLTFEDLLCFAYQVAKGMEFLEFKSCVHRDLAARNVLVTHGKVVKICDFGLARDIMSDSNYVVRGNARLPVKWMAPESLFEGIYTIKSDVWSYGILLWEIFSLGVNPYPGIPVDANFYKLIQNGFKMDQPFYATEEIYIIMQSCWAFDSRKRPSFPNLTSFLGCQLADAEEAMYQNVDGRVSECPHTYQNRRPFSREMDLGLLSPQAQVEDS
The settings on record: 1 uM. The procedure, abridged:
as §1

Assay [4] deals with T4, kinases of the scanMAX Kinase assay panel (Homo sapiens, UniProt P36888, N841I).
T4 construct: purchased DiscoverX Co. (contract measurement) scanMAX Kinase assay panel
T4 sequence (P36888 27-993 N841I): T3 sequence (P36888 27-993) with N815I
Conditions: FLT3(N841I); 1 uM. The procedure, abridged: as §1

Assay [5] deals with T5, kinases of the scanMAX Kinase assay panel (Homo sapiens, UniProt P49137).
T5 construct: purchased DiscoverX Co. (contract measurement) scanMAX Kinase assay panel
Conditions: MAPKAPK2; 1 uM. The procedure, abridged:
as §1

In assay [6] the target is T6, kinases of the scanMAX Kinase assay panel (Homo sapiens, UniProt Q15569).
T6 construct: purchased DiscoverX Co. (contract measurement) scanMAX Kinase assay panel
The settings on record: kinase TESK1; 1 uM in DMSO. The procedure, abridged: as §1

Assay [7] has as its target T7, kinases of the scanMAX Kinase assay panel (Homo sapiens, UniProt Q9NY57).
T7 construct: purchased DiscoverX Co. (contract measurement) scanMAX Kinase assay panel
The settings on record: kinase YANK2; 1 uM in DMSO. The procedure, abridged: as §1

The target in assay [8] is T8, kinases of the scanMAX Kinase assay panel (Homo sapiens, UniProt Q9P286).
T8 construct: purchased DiscoverX Co. (contract measurement) scanMAX Kinase assay panel
The settings on record: PAK7; 1 uM. The procedure, abridged: as §1

Molecules are shown by their SMILES. Where a chain is given by its changes, count along the chain named.

T2 sequence (P10721 26-976 V559D): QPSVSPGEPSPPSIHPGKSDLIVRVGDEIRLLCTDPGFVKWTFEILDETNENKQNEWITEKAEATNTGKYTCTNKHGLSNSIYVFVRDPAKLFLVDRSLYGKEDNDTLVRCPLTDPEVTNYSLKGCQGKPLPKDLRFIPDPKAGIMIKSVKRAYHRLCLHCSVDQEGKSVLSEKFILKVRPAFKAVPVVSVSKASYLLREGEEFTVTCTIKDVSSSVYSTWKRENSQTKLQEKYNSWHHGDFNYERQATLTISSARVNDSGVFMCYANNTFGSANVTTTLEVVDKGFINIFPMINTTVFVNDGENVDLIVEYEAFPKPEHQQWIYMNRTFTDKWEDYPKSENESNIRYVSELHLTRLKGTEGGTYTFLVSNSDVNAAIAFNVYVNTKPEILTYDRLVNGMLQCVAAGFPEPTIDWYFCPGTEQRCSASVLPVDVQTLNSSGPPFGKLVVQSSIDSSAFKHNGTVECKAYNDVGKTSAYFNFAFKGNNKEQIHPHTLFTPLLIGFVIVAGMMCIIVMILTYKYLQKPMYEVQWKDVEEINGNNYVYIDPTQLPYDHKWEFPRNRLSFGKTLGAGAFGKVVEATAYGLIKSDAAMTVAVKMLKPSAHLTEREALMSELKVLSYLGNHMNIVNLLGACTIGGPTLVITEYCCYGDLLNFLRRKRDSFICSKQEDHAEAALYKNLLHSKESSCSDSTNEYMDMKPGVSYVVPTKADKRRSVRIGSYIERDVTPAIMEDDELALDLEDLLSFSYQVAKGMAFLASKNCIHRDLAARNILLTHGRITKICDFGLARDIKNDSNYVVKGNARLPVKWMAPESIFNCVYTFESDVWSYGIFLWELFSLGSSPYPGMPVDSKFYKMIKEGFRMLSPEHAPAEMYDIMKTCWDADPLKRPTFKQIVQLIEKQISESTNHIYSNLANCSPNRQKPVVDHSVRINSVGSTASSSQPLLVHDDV
T6 sequence (Q15569 whole entry): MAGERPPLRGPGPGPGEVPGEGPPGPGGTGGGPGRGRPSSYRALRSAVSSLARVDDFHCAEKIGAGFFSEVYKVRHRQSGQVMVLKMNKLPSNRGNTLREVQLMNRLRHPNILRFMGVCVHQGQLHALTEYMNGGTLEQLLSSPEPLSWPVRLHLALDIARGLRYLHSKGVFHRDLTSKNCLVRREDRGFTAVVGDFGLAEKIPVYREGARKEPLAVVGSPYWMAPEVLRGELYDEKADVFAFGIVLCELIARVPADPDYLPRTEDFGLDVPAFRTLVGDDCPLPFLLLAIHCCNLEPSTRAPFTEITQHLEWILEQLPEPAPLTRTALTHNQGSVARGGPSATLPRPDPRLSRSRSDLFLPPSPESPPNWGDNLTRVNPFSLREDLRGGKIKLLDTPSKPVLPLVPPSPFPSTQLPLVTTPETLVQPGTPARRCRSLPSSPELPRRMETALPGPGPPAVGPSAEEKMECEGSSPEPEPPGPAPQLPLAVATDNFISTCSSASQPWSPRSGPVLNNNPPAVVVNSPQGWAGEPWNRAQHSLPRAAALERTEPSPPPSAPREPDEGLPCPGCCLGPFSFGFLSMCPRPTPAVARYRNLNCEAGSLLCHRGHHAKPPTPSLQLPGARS
T8 sequence (Q9P286 whole entry): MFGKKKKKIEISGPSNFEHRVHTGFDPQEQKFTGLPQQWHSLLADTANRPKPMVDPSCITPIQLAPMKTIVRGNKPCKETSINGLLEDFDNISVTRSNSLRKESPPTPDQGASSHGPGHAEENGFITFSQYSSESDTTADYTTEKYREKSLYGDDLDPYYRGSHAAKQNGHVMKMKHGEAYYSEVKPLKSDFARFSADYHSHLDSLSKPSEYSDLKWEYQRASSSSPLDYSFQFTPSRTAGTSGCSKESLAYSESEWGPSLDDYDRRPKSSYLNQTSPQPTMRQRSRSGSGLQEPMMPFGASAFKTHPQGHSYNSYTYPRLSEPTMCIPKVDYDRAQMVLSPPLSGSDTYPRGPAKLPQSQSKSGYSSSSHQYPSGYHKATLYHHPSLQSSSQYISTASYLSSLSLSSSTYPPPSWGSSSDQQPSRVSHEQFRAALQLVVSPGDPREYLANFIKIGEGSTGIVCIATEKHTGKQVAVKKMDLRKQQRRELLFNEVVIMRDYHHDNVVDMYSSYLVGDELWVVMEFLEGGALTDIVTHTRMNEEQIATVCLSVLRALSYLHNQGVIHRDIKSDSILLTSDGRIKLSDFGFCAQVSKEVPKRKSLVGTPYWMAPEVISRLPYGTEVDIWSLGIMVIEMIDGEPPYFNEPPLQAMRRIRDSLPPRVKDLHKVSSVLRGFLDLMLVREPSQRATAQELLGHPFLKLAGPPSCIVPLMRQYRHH
T5 sequence (P49137 whole entry): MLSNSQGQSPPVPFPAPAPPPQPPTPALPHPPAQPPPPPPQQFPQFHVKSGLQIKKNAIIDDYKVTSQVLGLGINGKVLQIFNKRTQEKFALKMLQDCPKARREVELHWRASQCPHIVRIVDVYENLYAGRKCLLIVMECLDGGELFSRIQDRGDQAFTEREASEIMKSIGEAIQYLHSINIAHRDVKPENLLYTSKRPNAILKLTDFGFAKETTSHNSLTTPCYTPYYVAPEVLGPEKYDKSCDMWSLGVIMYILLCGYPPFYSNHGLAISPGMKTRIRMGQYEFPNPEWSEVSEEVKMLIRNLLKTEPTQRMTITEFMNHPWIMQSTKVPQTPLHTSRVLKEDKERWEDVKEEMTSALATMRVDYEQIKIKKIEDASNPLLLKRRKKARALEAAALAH
T1 sequence (O43353 whole entry): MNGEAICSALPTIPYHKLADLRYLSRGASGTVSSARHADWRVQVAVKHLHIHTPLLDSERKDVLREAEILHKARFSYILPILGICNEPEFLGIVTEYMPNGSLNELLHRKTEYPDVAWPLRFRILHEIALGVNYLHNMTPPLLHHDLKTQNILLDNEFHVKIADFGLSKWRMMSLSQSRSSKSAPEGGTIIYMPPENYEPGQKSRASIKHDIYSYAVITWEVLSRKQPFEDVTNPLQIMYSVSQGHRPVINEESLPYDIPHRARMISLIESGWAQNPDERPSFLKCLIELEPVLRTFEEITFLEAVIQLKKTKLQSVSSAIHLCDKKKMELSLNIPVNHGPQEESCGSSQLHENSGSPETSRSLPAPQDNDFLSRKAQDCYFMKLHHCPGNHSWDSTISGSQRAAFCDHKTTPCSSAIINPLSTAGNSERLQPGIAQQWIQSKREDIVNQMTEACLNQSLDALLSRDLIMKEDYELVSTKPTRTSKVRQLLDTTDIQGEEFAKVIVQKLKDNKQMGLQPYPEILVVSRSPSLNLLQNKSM
T7 sequence (Q9NY57 whole entry): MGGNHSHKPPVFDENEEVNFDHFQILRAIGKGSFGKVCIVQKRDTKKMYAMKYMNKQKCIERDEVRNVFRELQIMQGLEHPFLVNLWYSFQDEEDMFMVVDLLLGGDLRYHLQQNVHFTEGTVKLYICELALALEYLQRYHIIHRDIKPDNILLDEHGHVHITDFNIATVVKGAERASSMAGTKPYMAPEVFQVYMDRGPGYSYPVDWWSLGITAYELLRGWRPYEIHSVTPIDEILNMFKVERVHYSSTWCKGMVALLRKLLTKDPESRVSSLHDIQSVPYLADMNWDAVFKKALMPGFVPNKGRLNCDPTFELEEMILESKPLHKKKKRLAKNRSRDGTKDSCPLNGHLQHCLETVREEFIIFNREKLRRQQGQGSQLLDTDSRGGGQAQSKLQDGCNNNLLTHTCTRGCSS

`CC1(Nc2nc(Nc3cnn([C@H]4CCN(C5COC5)C[C@@H]4F)c3Cl)nc3[nH]cc(C#N)c23)CC1` [Example 52, 2-((5-chloro-1-((3S,4S)-3-fluoro-1-(oxetane-3-yl)piperidine-4-yl)-1H-pyrazole-4-yl)amino)((1-methylcyclopropyl)amino)-7H-pyrrolo[2,3-d]pyrimidine-5-carbonitrile]: the remaining binding at 1 µM in assay [1] amounted to 61%; in assay [2], 0%; in assay [3] (FLT3-autoinhibited), 0.3%; in assay [3] (FLT3) it was 0.05%; in assay [4], 0%; in assay [5], 70%. For the same compound, the remaining binding at 1 µM in assay [6] turned out to be 65%; in assay [7] it was 100%; in assay [8], 0.25%.

On to `CCNc1nc(Nc2ccc(C(=O)N3CCC(N4CCOCC4)CC3)cc2OC)nc2[nH]cc(C(F)(F)F)c12` [Example 104, (4-((4-(ethylamino)-5-(trifluoromethyl)-7H-pyrrolo[2,3-d]pyrimidine-2-yl)amino)-3-methoxyphenyl)(4-morpholinopiperidine-1-yl)methanone], for which the remaining binding at 1 µM was 100% in assay [1]; 46% in assay [2]; 76% in assay [3] (FLT3-autoinhibited); 65% in assay [3] (FLT3); 51% in assay [4]; 24% in assay [5]. Moreover, the remaining binding at 1 µM in assay [6] came out at 100%; in assay [7] it was 100%; in assay [8] it was 85%.

Consider `CNc1nc(Nc2ccc(C(=O)N3CCOCC3)cc2OC)nc2[nH]cc(C#N)c12` [Example 1, 2-((2-methoxy-4-(morpholine-4-carbonyl)phenyl)amino)-4-(methylamino)-7H-pyrrolo[2,3-d]pyrimidine-5-carbonitrile], for which the remaining binding at 1 µM in assay [1] amounted to 100%; in assay [2], 38%; in assay [3] (FLT3-autoinhibited), 45%; in assay [3] (FLT3) it was 86%; in assay [4], 90%; in assay [5], 4.6%. Also, the remaining binding at 1 µM was 100% in assay [6], 85% in assay [7] and 91% in assay [8].
